According to a melting point compilation (Tetko et al.; mined from patent text by program, amines drawn as free bases though some values may be those of a salt):

First: Cc1cccc(C(=O)NN=Cc2cccc(Cl)c2O)c1
Second: O=C(Nc1cccc2c(CO)ccnc12)c1c(Cl)cccc1Cl
The melting point of the first is lower: 166 to 169 °C for the first, 235 to 239 °C for the second.

First: CC(Sc1cc2cc(O)ccc2[nH]1)(C(=O)O)c1ccccc1 (centres undefined)
Second: COC(=O)c1ccc(O)cc1NC(=O)c1cccc2ccccc12
The melting point of the first is lower: 180 to 182 °C for the first, 246 to 248 °C for the second.

Compared with `COC(=O)C(c1ccccc1CCl)C(OC)OC` (centres undefined), `CC(C)CC(=O)Nc1ccccc1` is higher in melting point: 63.5 to 64.5 °C for the first, 67 to 68 °C for the second.

Compared with `CCC1(COc2ccc(C=CC(=O)O)cc2)COC1`, `N#Cc1ccc(OCCCCCCl)cc1` is lower in melting point: 128 °C for the first, 47 °C for the second.

Compared with `O=Cc1cccc2c1nc(-c1c(F)cccc1F)n2Cc1c(F)cccc1F`, `O=C(NC(=O)c1c(F)cccc1F)Nc1ccc(Oc2ccc(Cl)cc2)c(Cl)c1` is higher in melting point: 151 to 153 °C for the first, 194 to 196 °C for the second.

First: CCOC(=O)c1ccc2cc(-c3cc4ccccc4o3)ccn2c1=O
Second: C=CCc1cn2c(=O)c(C(=O)OCC)cnc2c2cc(OC)ccc12
The melting point of the first is higher: 195 to 197 °C for the first, 182 to 186 °C for the second.

First: C=C(ON1C(=O)[C@@H](NC(=O)OC(C)(C)C)[C@@H]1C)C(=O)O
Second: COC(=O)C(C)(C)OCc1cc2cc(Cl)ccc2n1S(=O)(=O)c1ccc(OC)cc1
The melting point of the first is higher: 127 to 130 °C for the first, 96 to 98 °C for the second.

Compared with `CCc1nc(-c2ccc(OCCCN3CCN(C)CC3)cc2)no1`, `COc1ccc(N2CCN(CCC3OCCc4ccc(Br)cc43)CC2)cc1` (centres undefined) is higher in melting point: 55 to 56 °C for the first, 78 to 79 °C for the second.

First: COc1ccccc1COc1ccc(S(=O)(=O)c2ccc(C)nc2Br)cc1
Second: COc1ccc2cc(NCc3ccc(OCc4ccccc4)cc3)ccc2c1
The melting point of the first is lower: 76 to 78 °C for the first, 139 to 141 °C for the second.

Compared with `CCN(CC)c1nc(O)cc(OC)n1`, `CCOC(=O)/C=C/c1ccc(OCC)nc1Oc1ccc(Cl)cc1Cl` is lower in melting point: 165 to 166 °C for the first, 90 to 92 °C for the second.

First: Cc1ccc(CCC(=O)CC(=O)CCc2ccc(C)cc2)cc1
Second: CC1CC(=O)NN=C1c1ccc(CCCCN)cc1 (centres undefined)
The melting point of the first is lower: 45.6 to 46.8 °C for the first, 135 to 137 °C for the second.

First: COc1cc2nc(N3CCc4c(CN5CCOCC5)cccc4C3)[nH]c(=O)c2cc1OC
Second: COCCOC(=O)c1ccccc1Nc1nc(Nc2cc3c(cc2OC)CCN(CC(C)O)CC3)ncc1Cl (centres undefined)
The melting point of the first is higher: 228 to 230 °C for the first, 100 °C for the second.

`CCCCCCCCSCCCN=C=O` and `CCCCCCCCCCCCCCCCCC(=O)n1cc(F)c(=O)n(C(=O)c2ccccc2)c1=O` cannot be ordered by melting point: 84 to 85 °C for the first, 85 °C for the second.

First: COCCNCc1ccc(-c2cc3ncnc(Nc4ccc5[nH]ccc5c4)c3s2)cc1
Second: COc1ccc(-c2cc3cc(F)c(F)cc3[nH]2)cc1NCc1ccc(C#N)cc1
The melting point of the first is higher: 170 to 190 °C for the first, 158 to 159 °C for the second.

First: COC(=O)c1ccc(C2C(=O)Oc3c2cc(C(C)(C)C)cc3C(C)(C)C)cc1 (centres undefined)
Second: CCCCC(CC(=O)Nc1cc(C(N)=O)ccc1C(C)(C)C)c1ccc(OC)cc1OCC (centres undefined)
The melting point of the first is lower: 135 to 136 °C for the first, 184 to 186 °C for the second.

First: O=C1NC(=O)[C@@]2(C[C@@H](C(=O)NCCO[N+](=O)[O-])Oc3ccc(F)cc32)N1
Second: CC(=O)NC[C@H]1OC(=O)N2c3ccc(C(=O)CCl)cc3C[C@H]12
The melting point of the first is higher: 266 to 271 °C for the first, 172 to 174 °C for the second.

First: COc1ccc(-c2cnc3cc4[nH]ncc4cc3n2)cc1F
Second: CCOC(=O)c1cnn2c(-c3ccc(OC)c(OC)c3)ccnc12
The melting point of the first is higher: > 250 °C for the first, 148 to 149 °C for the second.

Compared with `O=C(N1CC2CC2(c2ccc(Cl)cc2)C1)C12CC3CC(CC(C3)C1)C2` (centres undefined), `O=C(Cc1ccccn1)N1CCC(C2c3ccc(Cl)cc3CCc3cccnc32)CC1` (centres undefined) is higher in melting point: 72 to 75 °C for the first, 81.7 to 82 °C for the second.

First: C1=C(c2c[nH]c3c(C4CC4)cccc23)CCNC1
Second: CSC1C(=O)Nc2c(C(=O)c3ccccc3)cccc21 (centres undefined)
The melting point of the first is higher: 186 to 189 °C for the first, 130 °C for the second.

First: Oc1ccc2c(c1)OC1(CCCCCC1)O2
Second: O=S1(=O)N=C2CCCN2c2ccc(S(=O)(=O)NC3CCCCC3)cc21
The melting point of the first is lower: 80 to 82 °C for the first, 151 to 153 °C for the second.

First: Cc1oc(-c2ccccc2)nc1Cc1cc2cc(C=C3OC(=O)NC3=O)ccc2o1
Second: COC(=O)c1cccc2c(C(=O)c3ccccc3)c(C)oc12
The melting point of the first is higher: 185 to 200 °C for the first, 70 to 72 °C for the second.

Compared with `FC(F)(F)c1cc(Cl)c(-n2cc(C3CC3(Br)Br)c(C=C(Br)Br)n2)c(Cl)c1` (centres undefined), `Nc1ccc(Oc2ncc(C(F)(F)F)cc2Cl)cc1` is lower in melting point: 106 to 107 °C for the first, 85 to 87 °C for the second.

Going from `CC(=O)OC1CSC(Oc2ccccc2-c2ccno2)C(OC(C)=O)C1OC(C)=O` (centres undefined) to `COC(=O)C1Cc2c([nH]c3ccccc23)C(c2ccc(O)c(OC)c2)N1` (centres undefined), the melting point rises from 75 °C to 195 °C.

First: O=C(CCl)NCc1c(O)ccc2c1CCCC2=O
Second: CCOC(=O)c1cc2c(C)ccc(O)c2[nH]1
The melting point of the first is lower: 196 to 199 °C for the first, 211 to 212 °C for the second.

Compared with `Cc1ccc(C(=O)Nc2nc(-c3ccccc3)c(-c3nc4ccccc4c(=O)n3-c3ccccc3C)s2)cc1`, `COC(=O)c1ccc(NC(=O)c2ccccc2-c2ccccc2)c(OC)c1` is lower in melting point: > 275 °C for the first, 115 to 117 °C for the second.

First: CCCCCCCCCCCCCCCCCNC(=O)O[C@@H]1CCCO[C@H]1COCc1ccccc1 (relative stereo)
Second: CCCCCCCCc1ccc(N(c2ccc(CCCCCCCC)cc2)C2(c3c(C)n(CC)c4ccccc34)OC(=O)c3ccccc32)cc1 (centres undefined)
The melting point of the first is lower: 61 to 63 °C for the first, 106 to 108 °C for the second.

Compared with `O=C(O)c1cccnc1-c1ccc2[nH]nc(Nc3nccs3)c2c1`, `CCCCc1nc2cccc(C(=O)OC)c2n1Cc1ccc(-c2cncnc2-c2nnn[nH]2)cc1` is lower in melting point: 267 to 268 °C for the first, 215 to 220 °C for the second.

First: Nc1c(F)c(Cl)c(O)c(Cl)c1F
Second: Cc1c(-c2ccc(Cl)s2)ccc(N)c1C#N
The melting point of the first is higher: 151 °C for the first, 108 to 110 °C for the second.

First: Fc1ccc2nc(S)oc2c1
Second: CC(C)n1cnc2c(Nc3ccc(F)cc3)nc(Cl)nc21
The melting point of the first is higher: 248 to 250 °C for the first, 154 °C for the second.

Compared with `NC(=O)Cc1cc(Oc2ccc3c(ccn3C(=O)Nc3ccc(CN4CCN(C5CC5)CC4)c(C(F)(F)F)c3)c2)ncn1`, `CSc1nccc(Oc2ccc(NC(=O)c3cc(F)cc(OC4CCCCC4)c3)c3ccccc23)n1` is higher in melting point: 122 to 126 °C for the first, 130 to 132 °C for the second.

First: COC(=O)c1c(C(=O)OC)c2sc3ccccc3n2c1-c1ccc(OC)cc1
Second: COc1cc(C(C)C)ccc1C1(NC(=O)OC(C)C)C(=O)c2ccccc2C1=O
The melting point of the first is higher: 167 to 168 °C for the first, 159 to 161 °C for the second.

First: Cc1ccc(-c2cc(F)c(F)cc2-c2ccc(S(N)(=O)=O)cc2)cc1Cl
Second: Oc1ccc2c(c1)COc1c-2cc2ccc(O)cc2c1-c1cccc(Cl)c1
The melting point of the first is lower: 139 to 140 °C for the first, 243 to 246 °C for the second.

First: CC(=O)c1ccc2ccccc2c1OC(F)F
Second: CCOC(=O)c1nc2ncnc(NCc3ccccc3)c2[nH]1
The melting point of the first is lower: 80 to 81 °C for the first, 181 to 185 °C for the second.

First: NS(=O)(=O)c1nnc(NC(=O)CNC(=O)OCc2ccccc2)s1
Second: CC(=O)n1nc(C(=O)NC2CN(C)CCN(Cc3ccccc3)C2)c2ccccc21 (centres undefined)
The melting point of the first is higher: 199 to 201 °C for the first, 166 to 168 °C for the second.

First: CCc1cc(Nc2ccc(Sc3ccc(O)cc3)cc2)nc(N)n1
Second: NC1=NC(c2ccc(OC(F)F)cc2)(c2cccc(-c3cccnc3F)c2)C2=NCC3(CC3)CN12 (centres undefined)
The melting point of the first is higher: 181 to 184 °C for the first, 98 to 108 °C for the second.

First: CC(CCC(F)(F)C(C)(C)O)C1CCC2C3CCC4=CC(=O)CCC4(C)C3CCC12C (centres undefined)
Second: CCOC1CC2(C)C(CCC3C4CCCC4(C)CC(N(C)C)C32)CC1O (centres undefined)
The melting point of the first is higher: 177 to 178 °C for the first, 54 to 59 °C for the second.

First: N#Cc1cnn2c1N(C(=O)CN1CCC(c3ccccc3)CC1)CC=C2c1cc(Cl)ccc1Cl
Second: COCCCc1nnc(-c2ccc(-c3ccccc3)nc2)n1-c1cccc(C#N)c1C
The melting point of the first is higher: 199 to 200 °C for the first, 144 to 145 °C for the second.

Compared with `CCCc1c(O)c(C(C)=O)cc(Cl)c1OCCCCCOc1c(C(C)=O)ccc(OCC(=O)O)c1CCC`, `CCCCCCC(CCCn1c(CCC)nc2c(N)nc3ccccc3c21)=NO` is higher in melting point: 77 to 80 °C for the first, 113 to 115 °C for the second.

First: CCN1C(=O)CCCc2c1ccc(Nc1ncc(Cl)c(Nc3ccccc3S(=O)(=O)N(C)C)n1)c2OC
Second: COc1ccc2c(c1)c(-c1cc3c(C#N)ccnc3[nH]1)cn2C
The melting point of the first is lower: 183 °C for the first, 304 to 305 °C for the second.

Compared with `O=C(OCc1ccccc1)c1ccc(OCc2cccc(COc3ccc(C(=O)OCc4ccccc4)cc3)c2)cc1`, `O=C(OCc1ccccc1)c1ncc(OCc2ccccc2)c(OCc2ccccc2)c1Br` is higher in melting point: 92.5 to 93.8 °C for the first, 120 °C for the second.

Compared with `CCC(CC)c1ccc(Cl)c2nc3n(c12)CCN3C(=O)c1c(C)cc(C)cc1C`, `Cc1cc(C)c(NC(=O)N=C2CCCN2C)c(C)c1` is lower in melting point: 234 to 236 °C for the first, 121 to 123 °C for the second.

Compared with `Clc1ccccc1-c1ccc2nncn2c1`, `c1ccc2c(c1)c1ccccc1n2C1CCCCO1` (centres undefined) is lower in melting point: 177 to 180 °C for the first, 131 to 133 °C for the second.

First: CCc1nc2c(cnn2CC)c(NC2CCOCC2)c1CNC(=O)c1cccc(C(=O)NCc2ccc(OC)c(-c3cccc(CN4CCNC(C)C4)c3)c2)c1 (centres undefined)
Second: COc1ccc(N2CCOCC2)cc1NC(=S)C(=O)Nc1ccc(F)cc1
The melting point of the first is lower: 110 to 112 °C for the first, 206 to 208 °C for the second.

Compared with `CCCOc1ccccc1C=C(C=O)C(C=O)=Cc1ccccc1OCCC`, `CCN1CC(=O)N(CCc2ccccc2)C1=S` is lower in melting point: 109 to 110 °C for the first, 66 to 68 °C for the second.

First: COc1ccc(C[C@H]2Cc3cc(C)cnc3[C@H](C)C2)cc1
Second: CC(C)c1ccc(N(Cc2ccc(N(C)C)cc2)C(=O)C2CCSc3ccccc32)cc1 (centres undefined)
The melting point of the first is higher: 218 to 222 °C for the first, 118 °C for the second.

First: O=C(O)c1cc(Cc2c[nH]cn2)ccc1O
Second: O=C1CCC(c2ccccc2O)=NN1
The melting point of the first is higher: 254 to 258 °C for the first, 211 to 212 °C for the second.

Compared with `COC(=O)c1ccc(N)cn1`, `CC(=O)NC[C@H]1CN(c2ccc(N3C=CS(=O)(=O)CC3)c(F)c2)C(=O)O1` is higher in melting point: 147 to 150 °C for the first, 193 to 194 °C for the second.

First: CCN(CC)CC1CCCCN1CCNC(=O)N1c2ccc(Br)cc2C(=O)Nc2cccnc21 (centres undefined)
Second: O=c1c2cccc3ncc(c(=O)n1CCCCNS(=O)(=O)CC(F)(F)F)n32
The melting point of the first is lower: 117 to 119 °C for the first, 154 to 155 °C for the second.

First: Cc1noc(NS(=O)(=O)c2cc(Br)c(Br)s2)c1Br
Second: Cc1cc(C)c(C2C(=O)N(C)C3(CCN(N(C)C)CC3)C2=O)c(C)c1 (centres undefined)
The melting point of the first is lower: 153 to 155 °C for the first, > 195 °C for the second.

In the case of `CN1CCN(CC2CCN(c3ncc4ncnc(Nc5ccc(F)c(Cl)c5)c4n3)CC2)CC1`, the melting point is reported as 138 to 140 °C.
